Where two headings read alike, the source gives them in different places.
Test system: MRSA USA300
Experiment: Antibacterial activity assay (MIC by broth microdilution, MBC by subculture)
Assay type: cell-based, Staphylococcus aureus
Details: for synergy of the fatty acid with SC5005 (in words): summary of Tables 1 and 2; for bactericidal combination effect of the fatty acid with SC5005 (in words): MBC, Table 2; for effect of the fatty acid on the MIC of SC5005 (in words): summary of Table 1
Description: The antimicrobial activity was based on MIC and MBC; MIC is the minimum inhibitory concentration and MBC is the minimum bactericidal concentration. The MIC of individual test agents against MRSA USA300 strains was determined using the broth microdilution method according to CLSI guidelines. Briefly, overnight bacterial cultures in LB medium were diluted 1:50 in fresh LB medium and incubated at 37° C. until reaching an OD600 of 0.5 to 0.6. Bacterial suspensions were diluted to a final concentration of 5×10^5 cfu/mL in fresh CAMHB and then exposed to each test agent at increasing doses in triplicate in 96-well plates for 24 hours at 37° C. The MIC of each agent was defined as the lowest concentration without visible bacterial growth. […] The lowest broth dilution that had no viable bacteria was considered the MBC.
Then, the combination effect was measured by calculating their corresponding fractional inhibitory concentration index (FICI) with the equation ΣFIC (FICi)=FICA+FICB=(CombA/MICA)+(CombB/MICB), where MICA and MICB are the MICs of drugs A and B alone, respectively, and CombA and CombB are the concentrations of drugs A and B in combination, respectively. […] was defined as an FICI≤0.5, no interaction was defined as an FICI>0.5-4.0, and antagonism was defined as an FICI>4.

[1] = Staphylococcus aureus, amide compound alone, read-out: MBC
[2] = Staphylococcus aureus, amide compound alone, read-out: MIC
[3] = Staphylococcus aureus, fatty acid alone, read-out: MBC fatty acid
[4] = Staphylococcus aureus, fatty acid alone, read-out: MIC fatty acid

Structure (SMILES) | MIC (+8 mg/L DHA) | MBC [1] | MIC [2] | MBC (+8 mg/L DHA) | further results
O=C(Nc1ccc2c(c1)OCO2)Nc1ccc(Cl)c(C(F)(F)F)c1 [1-159, reference compound] | 0.125 µg/mL | 64 µg/mL | 32 µg/mL | – | –
O=C(Nc1ccc(Cl)c(C(F)(F)F)c1)Nc1cccc(OF)c1OF [1-164, reference compound] | 0.03125 µg/mL | 4 µg/mL | 0.25 µg/mL | – | –
O=C(Nc1ccc(Oc2ccccc2)cc1)Nc1ccc(Cl)c(C(F)(F)F)c1 [3-006, reference compound] | 0.0078 µg/mL | 1 µg/mL | 0.125 µg/mL | – | –
CC/C=C\C/C=C\C/C=C\C/C=C\C/C=C\CCCC(=O)O [Eicosapentaenoic acid, eicosapentaenoic acid] | – | – | – | – | MBC [3]: 1020 µg/mL; MIC [4]: 64 µg/mL
FC(F)(F)c1cc(Nc2cncc(Nc3ccc(Cl)c(C(F)(F)F)c3)n2)ccc1Cl [SC5010] | >64 µg/mL | > 64 µg/mL | > 64 µg/mL | >64 µg/mL | –
C#Cc1cccc(Nc2cncc(Nc3cccc(C#C)c3)n2)c1 [SC5015] | >64 µg/mL | > 64 µg/mL | > 64 µg/mL | >64 µg/mL | –
O=C(Nc1ccc(Cl)c(C(F)(F)F)c1)C1(C(=O)Nc2ccc(Cl)c(C(F)(F)F)c2)CC1 [SC5020] | 0.125 µg/mL | > 64 µg/mL | > 64 µg/mL | 0.125 µg/mL | –
C#Cc1cccc(NC(=O)C2(C(=O)Nc3cccc(C#C)c3)CC2)c1 [SC5021] | 64 µg/mL | > 64 µg/mL | > 64 µg/mL | 64 µg/mL | –
O=C(Nc1ccccc1)C(CCCl)C(=O)Nc1ccccc1 [SC5022] | >64 µg/mL | > 64 µg/mL | > 64 µg/mL | >64 µg/mL | –
O=C(Nc1cccc(C(F)(F)F)c1)C(CCCl)C(=O)Nc1cccc(C(F)(F)F)c1 [SC5023] | 16 µg/mL | > 64 µg/mL | > 64 µg/mL | 16 µg/mL | –
O=C(Nc1ccc(OC(F)(F)F)cc1)C(CCCl)C(=O)Nc1ccc(OC(F)(F)F)cc1 [SC5024] | 8 µg/mL | > 64 µg/mL | > 64 µg/mL | 8 µg/mL | –
O=C(Nc1cc(Cl)cc(Cl)c1)C(CCCl)C(=O)Nc1cc(Cl)cc(Cl)c1 [SC5025] | 2 µg/mL | 32 µg/mL | 16 µg/mL | 2 µg/mL | –
C#Cc1cccc(NC(=O)C(CCCl)C(=O)Nc2cccc(C#C)c2)c1 [SC5026] | >64 µg/mL | > 64 µg/mL | > 64 µg/mL | >64 µg/mL | –
O=C(Nc1cccc(Cl)c1)C(CCCl)C(=O)Nc1cccc(Cl)c1 [SC5027] | 64 µg/mL | > 64 µg/mL | > 64 µg/mL | >64 µg/mL | –
O=C(Nc1ccc([N+](=O)[O-])c(C(F)(F)F)c1)C(CCCl)C(=O)Nc1ccc([N+](=O)[O-])c(C(F)(F)F)c1 [SC5034] | 1 µg/mL | 32 µg/mL | 16 µg/mL | 1 µg/mL | –
O=C(Nc1cc(Cl)cc(Cl)c1)C(CCCl)C(=O)Nc1ccc(Cl)c(C(F)(F)F)c1 (centres unmarked) [SC5035] | 1 µg/mL | 32 µg/mL | 16 µg/mL | 2 µg/mL | –
C=CCC(C(=O)Nc1ccc(Cl)c(C(F)(F)F)c1)C(=O)Nc1ccc(Cl)c(C(F)(F)F)c1 [SC5037] | 0.0039 µg/mL | 2 µg/mL | 1 µg/mL | 0.0078 µg/mL | –
C#Cc1cccc(NC(=O)C(CC=C)C(=O)Nc2cccc(C#C)c2)c1 [SC5038] | >64 µg/mL | > 64 µg/mL | > 64 µg/mL | >64 µg/mL | –
C=CCC(C(=O)Nc1cc(Cl)cc(Cl)c1)C(=O)Nc1cc(Cl)cc(Cl)c1 [SC5040] | 0.0039 µg/mL | 2 µg/mL | 1 µg/mL | 0.125 µg/mL | –
O=C(Nc1cc(Cl)cc(Cl)c1)C(CCCl)C(=O)Nc1ccc([N+](=O)[O-])c(C(F)(F)F)c1 (centres unmarked) [SC5041] | 0.0625 µg/mL | 2 µg/mL | 0.5 µg/mL | 0.0625 µg/mL | –
O=C(Nc1cc(Cl)cc(Cl)c1)C(Cc1ccccc1)C(=O)Nc1cc(Cl)cc(Cl)c1 [SC5043] | 0.0156 µg/mL | 4 µg/mL | 2 µg/mL | 0.0156 µg/mL | –
O=C(Nc1cc(C(F)(F)F)cc(C(F)(F)F)c1)C(Cc1ccccc1)C(=O)Nc1cc(C(F)(F)F)cc(C(F)(F)F)c1 [SC5044] | 0.000975 µg/mL | 2 µg/mL | 0.5 µg/mL | 0.0078 µg/mL | –
O=C(NC1CCCCC1)C(CCCl)C(=O)NC1CCCCC1 [SC5048] | >64 µg/mL | > 64 µg/mL | > 64 µg/mL | >64 µg/mL | –

Structure (SMILES) | MIC (+8 mg/L DHA) | MBC [1] | MIC [2] | MBC (+8 mg/L DHA) | further results
CCCNC(=O)C(CCCl)C(=O)Nc1ccc(Cl)c(C(F)(F)F)c1 (centres unmarked) [SC5049] | 8 µg/mL | > 64 µg/mL | > 64 µg/mL | 8 µg/mL | –
C=CCNC(=O)C(CCCl)C(=O)Nc1ccc(Cl)c(C(F)(F)F)c1 (centres unmarked) [SC5050] | 8 µg/mL | > 64 µg/mL | > 64 µg/mL | 16 µg/mL | –
C=CCNC(=O)C(CCCl)C(=O)NCC=C [SC5052] | 1 µg/mL | > 64 µg/mL | > 64 µg/mL | 2 µg/mL | –
O=C(Nc1ccc(Cl)c(C(F)(F)F)c1)C(CCCl)C(=O)NC1CCCCC1 (centres unmarked) [SC5053] | 1 µg/mL | > 64 µg/mL | > 64 µg/mL | 2 µg/mL | –
CN(C(=O)C(CCCl)C(=O)N(C)c1ccc(Cl)c(C(F)(F)F)c1)c1ccc(Cl)c(C(F)(F)F)c1 [SC5101] | >64 µg/mL | > 64 µg/mL | > 64 µg/mL | >64 µg/mL | –
CN(C(=O)C(CCCl)C(=O)N(C)c1cc(Cl)cc(Cl)c1)c1cc(Cl)cc(Cl)c1 [SC5102] | >64 µg/mL | > 64 µg/mL | > 64 µg/mL | >64 µg/mL | –
O=C(Nc1ccc(Cl)c(C(F)(F)F)c1)C(CCCCl)C(=O)Nc1ccc(Cl)c(C(F)(F)F)c1 [SC5103] | 0.0039 µg/mL | 2 µg/mL | 0.25 µg/mL | 0.0078 µg/mL | –
O=C(Nc1cc(Cl)cc(Cl)c1)C(F)(CCCl)C(=O)Nc1cc(Cl)cc(Cl)c1 [SC5104] | 0.0078 µg/mL | 4 µg/mL | 0.5 µg/mL | 0.0078 µg/mL | –
O=C(Nc1ccc(Cl)c(C(F)(F)F)c1)C(F)(CCCl)C(=O)Nc1ccc(Cl)c(C(F)(F)F)c1 [SC5105] | 0.125 µg/mL | > 64 µg/mL | > 64 µg/mL | 0.125 µg/mL | –
O=C(CC(=O)Nc1ccc(Cl)c(C(F)(F)F)c1)Nc1ccc(Cl)c(C(F)(F)F)c1 [SC5106] | 0.25 µg/mL | > 64 µg/mL | > 64 µg/mL | 0.5 µg/mL | –
O=C(Nc1ccc(Cl)c(C(F)(F)F)c1)C1(C(=O)Nc2ccc(Cl)c(C(F)(F)F)c2)CC1 [SC5107] | 0.0625 µg/mL | – | – | 0.125 µg/mL | MBC (amide compound alone): >64 µg/mL; MIC (amide compound alone): >64 µg/mL
O=C(Nc1ccc(Cl)c(C(F)(F)F)c1)Nc1ccc(Cl)c(C(F)(F)F)c1 [SC5178] | 0.00012 µg/mL | 2 µg/mL | 0.25 µg/mL | 0.00156 µg/mL | –
CCCCC/C=C\C/C=C\C/C=C\C/C=C\CCCC(=O)O [arachidonic acid] | – | – | – | – | MBC [3]: 1020 µg/mL; MIC [4]: 128 µg/mL
CCCCCCCC/C=C/CCCCCCCC(=O)O [elaidic acid] | – | – | – | – | MBC [3]: > 1020 µg/mL; MIC [4]: > 1020 µg/mL; synergy of the fatty acid with SC5005 (in words): did not exhibit synergy with SC5005
CCCCCCCC/C=C\CCCCCCCCCCCC(=O)O [erucic acid] | – | – | – | – | bactericidal combination effect of the fatty acid with SC5005 (in words): exhibited a synergistic bactericidal effect with SC5005; MBC [3]: 1020 µg/mL; MIC [4]: 128 µg/mL; effect of the fatty acid on the MIC of SC5005 (in words): had no effect on the MIC of SC5005
CCCCCCCC/C=C\CCCCCCCCCC(=O)O [gondoic acid] | – | – | – | – | bactericidal combination effect of the fatty acid with SC5005 (in words): exhibited a synergistic bactericidal effect with SC5005; MBC [3]: > 1020 µg/mL; MIC [4]: 512 µg/mL; effect of the fatty acid on the MIC of SC5005 (in words): had no effect on the MIC of SC5005
CCCCC/C=C\C/C=C\CCCCCCCC(=O)O [linoleic acid] | – | – | – | – | MBC [3]: > 1020 µg/mL; MIC [4]: 1020 µg/mL
CCCCCCCCCCCCCC(=O)O [myristic acid] | – | – | – | – | MBC [3]: > 1020 µg/mL; MIC [4]: 512 µg/mL; synergy of the fatty acid with SC5005 (in words): neither of nervonic acid (C24:1n9c) and myristic acid (C14:1n5c), which have 24 and 14 carbon atoms respectively, showed any synergistic activity with SC5005
CCCCCCCC/C=C\CCCCCCCCCCCCCC(=O)O [nervonic acid] | – | – | – | – | MBC [3]: > 1020 µg/mL; MIC [4]: 128 µg/mL; synergy of the fatty acid with SC5005 (in words): neither of nervonic acid (C24:1n9c) and myristic acid (C14:1n5c), which have 24 and 14 carbon atoms respectively, showed any synergistic activity with SC5005
CCCCCCCC/C=C\CCCCCCCC(=O)O [oleic acid] | – | – | – | – | MBC [3]: > 1020 µg/mL; MIC [4]: 512 µg/mL
CCCCCC/C=C\CCCCCCCC(=O)O [palmitoleic acid] | – | – | – | – | MBC [3]: 512 µg/mL; MIC [4]: 64 µg/mL; synergy of the fatty acid with SC5005 (in words): exhibited synergy
CCCCCCCCCCCCCCCCCC(=O)O [stearic acid] | – | – | – | – | MBC [3]: > 1020 µg/mL; MIC [4]: 512 µg/mL; synergy of the fatty acid with SC5005 (in words): failed to exhibit synergy

Reference: patent US20260130885A1, “ANTIMICROBIAL COMPOSITIONS, PHARMACEUTICAL COMPOSITIONS AND USE THEREOF” (priority 2022, published 2026)
